Legend:
Type in all cases: cell-based
BRAF V600E = target: T1, BRAF V600E (Homo sapiens, UniProt P15056, V600E); test: BRAF HiBiT degradation assay, C-terminal HiBiT-tagged BRAF V600E A375 cells (clone 1F10), Nano-Glo HiBiT Lytic assay; details: for Dmax: A-375
T1 construct: endogenous C-terminal HiBiT fusion tag on BRAF V600E allele; endogenous in cells; host or cells: A375 clone 1F10 (CRISPR-Cas9 knock-in of the HiBiT tag; parental A375 from ATCC)
How it was run: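 Using CRISPR-engineered A375 cells that carry a C-terminal HiBiT tag on endogenous BRAF V600E, remaining protein was quantified by lytic luminescence relative to DMSO-treated cells, with wildtype A375 as the background control. DC50 denotes the concentration giving 50% degradation.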

BRAF G469A = target: T2, BRAF G469A (Homo sapiens, UniProt P15056, G469A); test: BRAF HiBiT degradation assay, C-terminal HiBiT-tagged BRAF G469A overexpressed in HCT-116 BRAF−/− cells (clone 34), Nano-Glo HiBiT Lytic assay
T2 construct: Horizon Discovery (HCT-116 BRAF−/− cells); host or cells: HCT-116 BRAF−/− cells, clone 34, lentiviral transduction
How it was run: (§1)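 Degradation assay in HCT-116 BRAF−/− cells carrying lentiviral HiBiT-tagged mutant BRAF. The readout is % protein remaining across 1 μM to 0.01 nM compound, and DC50 marks 50% remaining.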

BRAF G466V = target: T3, BRAF G466V (Homo sapiens, UniProt P15056, G466V); test: BRAF HiBiT degradation assay, C-terminal HiBiT-tagged BRAF G466V overexpressed in HCT-116 BRAF−/− cells (clone 8), Nano-Glo HiBiT Lytic assay
T3 construct: Horizon Discovery (HCT-116 BRAF−/− cells); host or cells: HCT-116 BRAF−/− cells, clone 8, lentiviral transduction
How it was run: as §1

BRAF D594G = target: T4, BRAF D594G (Homo sapiens, UniProt P15056, D594G); test: BRAF HiBiT degradation assay, C-terminal HiBiT-tagged BRAF D594G overexpressed in HCT-116 BRAF−/− cells (clone 63), Nano-Glo HiBiT Lytic assay
T4 construct: Horizon Discovery (HCT-116 BRAF−/− cells); host or cells: HCT-116 BRAF−/− cells, clone 63, lentiviral transduction
How it was run: as §1

[1] = A375 (BRAF V600E), DC50 at 50%: fitted conc. at Y=50
[2] = A375 (BRAF V600E), percentage protein degraded at maximal compound effect relative to DMSO
[3] = Class 2, BRAF G469A, DC50 at 50%: fitted conc. at Y=50
[4] = HCT-116, Class 2, BRAF G469A, percentage protein degraded at maximal compound effect relative to DMSO
[5] = BRAF G466V, DC50 at 50%: fitted conc. at Y=50
[6] = HCT-116, BRAF G466V, percentage protein degraded at maximal compound effect relative to DMSO
[7] = BRAF D594G, DC50 at 50%: fitted conc. at Y=50
[8] = HCT-116, BRAF D594G, percentage protein degraded at maximal compound effect relative to DMSO
[9] = A375 (BRAF V600E, Class 1), DC50 at 50% degradation
[10] = A375 (BRAF V600E, Class 1), observed Dmax, % protein degraded relative to DMSO control
[11] = BRAF G469A (Class 2), HCT-116 BRAF−/− cells, DC50 at 50% degradation
[12] = BRAF G469A (Class 2), HCT-116 BRAF−/− cells, observed Dmax relative to DMSO control
[13] = BRAF G466V (Class 3), HCT-116 BRAF−/− cells, DC50 at 50% degradation
[14] = BRAF G466V (Class 3), HCT-116 BRAF−/− cells, observed Dmax relative to DMSO control
[15] = BRAF D594G (Class 3), HCT-116 BRAF−/− cells, DC50 at 50% degradation
[16] = BRAF D594G (Class 3), HCT-116 BRAF−/− cells, observed Dmax relative to DMSO control

T4 sequence (P15056 whole entry D594G): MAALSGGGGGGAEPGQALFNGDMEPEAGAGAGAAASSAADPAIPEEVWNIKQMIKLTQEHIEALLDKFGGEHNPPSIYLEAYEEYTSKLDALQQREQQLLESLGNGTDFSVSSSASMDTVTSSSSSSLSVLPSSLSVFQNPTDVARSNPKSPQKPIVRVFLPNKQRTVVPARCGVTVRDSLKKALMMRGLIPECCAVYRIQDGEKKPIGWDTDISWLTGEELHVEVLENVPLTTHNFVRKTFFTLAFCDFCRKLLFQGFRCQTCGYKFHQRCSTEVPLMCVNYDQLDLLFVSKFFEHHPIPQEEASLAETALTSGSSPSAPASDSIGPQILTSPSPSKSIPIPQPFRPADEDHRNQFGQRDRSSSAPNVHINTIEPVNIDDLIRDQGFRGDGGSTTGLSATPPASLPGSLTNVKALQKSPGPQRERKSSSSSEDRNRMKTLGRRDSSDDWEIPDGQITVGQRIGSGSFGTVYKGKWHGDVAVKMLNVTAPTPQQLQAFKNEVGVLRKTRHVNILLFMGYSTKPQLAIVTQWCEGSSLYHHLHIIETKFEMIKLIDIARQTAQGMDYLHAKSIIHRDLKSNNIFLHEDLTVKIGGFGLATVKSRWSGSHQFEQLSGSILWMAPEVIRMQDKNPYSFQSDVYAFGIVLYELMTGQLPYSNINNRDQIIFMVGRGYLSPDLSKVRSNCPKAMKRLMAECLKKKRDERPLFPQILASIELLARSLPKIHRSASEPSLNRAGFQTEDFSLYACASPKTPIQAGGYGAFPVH
T1 sequence (P15056 whole entry V600E, the tested form may be a part): as the sequence (P15056 whole entry D594G) above, with G594D, V600E counted along it
T2 sequence (P15056 whole entry G469A): as the sequence (P15056 whole entry D594G) above, with G469A, G594D counted along it
T3 sequence (P15056 whole entry G466V): as the sequence (P15056 whole entry D594G) above, with G466V, G594D counted along it

Row | SMILES | DC50 (BRAF V600E; [1]) [µM] | Dmax (BRAF V600E; [2]) [%] | DC50 (BRAF G469A; [3]) [µM] | Dmax (BRAF G469A; [4]) [%] | DC50 (BRAF G466V; [5]) [µM] | Dmax (BRAF G466V; [6]) [%] | DC50 (BRAF D594G; [7]) [µM] | Dmax (BRAF D594G; [8]) [%] | DC50 (BRAF V600E; [9]) [µM] | Dmax (BRAF V600E; [10]) [%] | DC50 (BRAF G469A; [11]) [µM] | Dmax (BRAF G469A; [12]) [%] | DC50 (BRAF G466V; [13]) [µM] | Dmax (BRAF G466V; [14]) [%] | DC50 (BRAF D594G; [15]) [µM] | Dmax (BRAF D594G; [16]) [%]
1 | CCCS(=O)(=O)Nc1cccc(-c2nc(C(C)(C)C)sc2-c2ccnc(Nc3cnn(CC4CCN(C(=O)C[C@H]5CCN(c6ccc(C7CCC(=O)NC7=O)cc6)C5)CC4)c3)n2)c1F (mixture of isomers) [Compound 111, N-(3-{2-tert-butyl-5-[2-({1-[(1-{2-[(3R)-1-{4-[(3RS)-2,6-dioxopiperidin-3-yl]phenyl}pyrrolidin-3-yl]acetyl}piperidin-4-yl)methyl]-1H-pyrazol-4-yl}amino)pyrimidin-4-yl]-1,3-thiazol-4-yl}-2-fluorophenyl)propane-1-sulfonamide] | < 0.01 | 30 to 70 | 0.05 to 0.5 | < 30 | 0.05 to 0.5 | < 30 | 0.05 to 0.5 | 30 to 70 |  |  |  |  |  |  |  | 
2 | CCN(C)S(=O)(=O)Nc1cccc(-c2nc(C3CCN(C(=O)C4CCN(C(=O)C5CCN(c6ccc(C7CCC(=O)NC7=O)cn6)CC5)CC4)CC3)sc2-c2ccnc(NC(C)C)n2)c1F (racemic) [Compound 183, Rac-(3S)-3-{6-[4-(4-{4-[4-(3-{[ethyl(methyl)sulfamoyl]amino}-2-fluorophenyl)-5-{2-[(propan-2-yl)amino]pyrimidin-4-yl}-1,3-thiazol-2-yl]piperidine-1-carbonyl}piperidine-1-carbonyl)piperidin-1-yl]pyridin-3-yl}piperidine-2,6-dione] | < 0.01 | > 70 | > 0.5 | 30 to 70 | < 0.01 | 30 to 70 | < 0.01 | 30 to 70 |  |  |  |  |  |  |  | 
3 | O=C1CCC(c2ccc(N3CCC4(CC3)CC(CN3CCN(c5ccc(-n6cc(-c7cc(Cl)cc(NS(=O)(=O)N8CC[C@@H](F)C8)c7F)c(-c7ccncc7)n6)nc5)CC3)C4)cc2)C(=O)N1 (mixture of isomers) [Compound 298, (3R)—N-{5-chloro-3-[1-(5-{4-[(7-{4-[(3RS)-2,6-dioxopiperidin-3-yl]phenyl}-7-azaspiro[3.5]nonan-2-yl)methyl]piperazin-1-yl}pyridin-2-yl)-3-(pyridin-4-yl)-1H-pyrazol-4-yl]-2-fluorophenyl}-3-fluoropyrrolidine-1-sulfonamide] |  |  |  |  |  |  |  |  | 0.05 to 0.5 | 30 to 70 | > 0.5 | < 30 | > 0.5 | < 30 | > 0.5 | < 30
4 | CCCS(=O)(=O)Nc1cccc(-c2nc(C(C)(C)C)sc2-c2ccnc(Nc3cnn(CC4CCN(C(=O)[C@H]5CC[C@H](Oc6ccc(C7CCC(=O)NC7=O)cn6)CC5)CC4)c3)n2)c1F (mixture of isomers) [Compound 117, N-{3-[2-tert-butyl-5-(2-{[1-({1-[(1r,4r)-4-({5-[(3RS)-2,6-dioxopiperidin-3-yl]pyridin-2-yl}oxy)cyclohexanecarbonyl]piperidin-4-yl}methyl)-1H-pyrazol-4-yl]amino}pyrimidin-4-yl)-1,3-thiazol-4-yl]-2-fluorophenyl}propane-1-sulfonamide] | < 0.01 | > 70 | > 0.5 | < 30 | > 0.5 | < 30 | > 0.5 | 30 to 70 |  |  |  |  |  |  |  | 
5 | CCCS(=O)(=O)Nc1cccc(-c2nc(C(C)(C)C)sc2-c2ccnc(Nc3ccc(C4CCN(CC5CCN(c6ccc(C7CCC(=O)NC7=O)cc6)CC5)CC4)cc3)n2)c1F (racemic) [Compound 167, Rac-N-[3-(2-tert-butyl-5-{2-[(4-{1-[(1-{4-[(3R)-2,6-dioxopiperidin-3-yl]phenyl}piperidin-4-yl)methyl]piperidin-4-yl}phenyl)amino]pyrimidin-4-yl}-1,3-thiazol-4-yl)-2-fluorophenyl]propane-1-sulfonamide] | 0.01 to 0.05 | 30 to 70 | > 0.5 | 30 to 70 | > 0.5 | 30 to 70 | > 0.5 | 30 to 70 |  |  |  |  |  |  |  | 
6 | O=C1CCC(c2ccc(N3CCC(CN4CCN(c5ccc(-n6cc(-c7cc(Cl)cc(NS(=O)(=O)N8CCCC8)c7F)c(-c7ccncc7)n6)cc5F)CC4)CC3)nc2)C(=O)N1 (racemic) [Compound 363, Rac-N-{5-chloro-3-[1-(4-{4-[(1-{5-[(3R)-2,6-dioxopiperidin-3-yl]pyridin-2-yl}piperidin-4-yl)methyl]piperazin-1-yl}-3-fluorophenyl)-3-(pyridin-4-yl)-1H-pyrazol-4-yl]-2-fluorophenyl}pyrrolidine-1-sulfonamide] |  |  |  |  |  |  |  |  | < 0.01 | > 70 | < 0.01 | > 70 | < 0.01 | > 70 | < 0.01 | > 70
7 | C[C@@H]1CN(c2ccc(-n3cc(-c4cc(Cl)cc(NS(=O)(=O)N5CCCC5)c4F)c(-c4ccncc4)n3)nc2)CCN1CC1CCN(c2ccc([C@H]3CCC(=O)NC3=O)cc2)CC1 [Compound 326, N-[5-chloro-3-(1-{5-[(3R)-4-[(1-{4-[(3R)-2,6-dioxopiperidin-3-yl]phenyl}piperidin-4-yl)methyl]-3-methylpiperazin-1-yl]pyridin-2-yl}-3-(pyridin-4-yl)-1H-pyrazol-4-yl)-2-fluorophenyl]pyrrolidine-1-sulfonamide] |  |  |  |  |  |  |  |  | < 0.01 | > 70 | 0.01 to 0.05 | 30 to 70 | < 0.01 | > 70 | < 0.01 | > 70
8 | CCCS(=O)(=O)Nc1cccc(-c2nc(C(C)(C)C)sc2-c2ccnc(NCC3CCN(CC4CCN(c5ccc(C(=O)N[C@H]6CCC(=O)NC6=O)nc5)CC4)CC3)n2)c1F [Compound 147, 5-{4-[(4-{[(4-{2-tert-butyl-4-[2-fluoro-3-(propane-1-sulfonamido)phenyl]-1,3-thiazol-5-yl}pyrimidin-2-yl)amino]methyl}piperidin-1-yl)methyl]piperidin-1-yl}-N-[(3S)-2,6-dioxopiperidin-3-yl]pyridine-2-carboxamide] | 0.05 to 0.5 | 30 to 70 | > 0.5 | < 30 | > 0.5 | < 30 | > 0.5 | < 30 |  |  |  |  |  |  |  | 
9 | CCCS(=O)(=O)Nc1cccc(-c2nc(C(C)(C)C)sc2-c2ccnc(Nc3ccc(N4CCN(CC5CCN(c6ccc(C7CCC(=O)NC7=O)cn6)CC5)CC4)cc3)n2)c1F (racemic) [Compound 47, Rac-N-[3-(2-tert-butyl-5-{2-[(4-{4-[(1-{5-[(3R)-2,6-dioxopiperidin-3-yl]pyridin-2-yl}piperidin-4-yl)methyl]piperazin-1-yl}phenyl)amino]pyrimidin-4-yl}-1,3-thiazol-4-yl)-2-fluorophenyl]propane-1-sulfonamide] | < 0.01 | > 70 | > 0.5 | 30 to 70 | < 0.01 | > 70 | 0.01 to 0.05 | 30 to 70 |  |  |  |  |  |  |  | 
10 | CCCS(=O)(=O)Nc1cccc(-c2cn(-c3ccc(N4CCN(CC5CCN(c6ccc([C@H]7CCC(=O)NC7=O)cn6)CC5)CC4)cc3)nc2-c2ccncc2)c1F [Compound 2, N-{3-[1-(4-{4-[(1-{5-[(3R)-2,6-dioxopiperidin-3-yl]pyridin-2-yl}piperidin-4-yl)methyl]piperazin-1-yl}phenyl)-3-(pyridin-4-yl)-1H-pyrazol-4-yl]-2-fluorophenyl}propane-1-sulfonamide] | 0.05 to 0.5 | > 70 | 0.01 to 0.05 | 30 to 70 | 0.01 to 0.05 | 30 to 70 | 0.01 to 0.05 | 30 to 70 |  |  |  |  |  |  |  | 
